Test results: paper PMC9346113, “Therapeutic impact of BET inhibitor BI 894999 treatment: backtranslation from the clinic” (British Journal of Cancer, 2022)

How the values were obtained:
[1] = Phase I trial MTD and platelet counts (NCT02516553); assay type: in vivo; settings: patients
Procedure: Schedule B (NCT02516553): daily oral treatment from Day 1 to Day 14 at 2.5 mg/day followed by a week-off in 3-week cycles. Schedule C (NCT02516553): one week-on, one week-off treatment, repeated every two weeks in 4-week cycles with, at each treatment week, a loading dose (6 mg) on Day 1 followed by a maintenance dose (3 mg per day) on the following 6 days.

[2] = tested on: NC lines (Ty-82) versus AML cell lines (MV-4-11); test: Incucyte caspase-3/7 apoptosis / cell death analysis; assay type: cell-based, human; settings: in contrast to AML cell lines, Supplementary Fig. S3
Procedure: Live-cell imaging was performed with the Incucyte® S3 Live-Cell Analysis System as described previously for Incucyte® Zoom.
Incucyte analysis. Ty-82 cells (NC) or MV-4-11 (AML) cells were treated with BI 894999 at the concentrations indicated and analyzed over time with the IncuCyte™Caspase-3/7 Apoptosis Assay Reagent (Essenbioscience Cat No 4440). Cell confluence (left) and green fluorescence as a measure of caspase 3/7 activation (right) were monitored for up to 7 days with images taken every 3 hours.

BRD3-NUT [3] = tested on: T1, BRD3-NUT; test: IHC of 10326 xenograft tumours, NUT protein; assay type: in vivo, mice; settings: day 21, 2 mg/kg BI 894999
T1 construct: endogenous in cells; host or cells: 10326 NUT carcinoma cells, in culture (A11) and as subcutaneous xenograft tumours in NOG mice (A26)
Procedure: Immunohistochemistry was performed on formalin-fixed, paraffin-embedded tumour tissue using antibodies against human Ki67(Cell Signaling #9027, 1:400 dilution), anti-human mitochondria (Abcam ab92824, 1:1000 dilution) and against endogenous NUT protein (Cell Signaling #3625, 1:50 dilution) used to detect NUT fusion proteins. Digital images of whole tissue sections were acquired using a Leica SCN400 histology scanner (Leica Microsystems). Ki67-positive index was evaluated using Halo Software V. 3.2 (Indica lab). Regions of interest (ROIs) within the tissue sections were first identified using Halo Software via machine learning technology across pathological samples and tissue control, within these ROIs, nuclei were detected and classified as positive or negative based on IHC staining thresholds.
BRD3-NUT 10326 tumor sections after treatment with 2 mg/kg BI 894999, 5 mg/kg or 10 mg/kg CCS1477 and the combination of both. IHC staining for NUT protein.

BRD3-NUT [4] = tested on: T1, BRD3-NUT; test: Immunofluorescence staining of NUT megadomains, 10326; assay type: cell-based, human; settings: 10326 cells; 30 minutes treatment
Procedure: (§1) Cells were seeded on four-well chamber slides (Merck Millipore, #PEZGS0416). After treatment, cells were fixed with 4% PFA (16% Solution, Thermo Fischer #28908 Paraformaldehyde, diluted 1:4 in PBS), permeabilised with 0,1% TX-100 (Sigma #93443, diluted in PBS). After blocking in blocking buffer (10% normal goat serum, Sigma #G9023–10ml, diluted in blocking solution: 2% BSA/PBS, Sigma #A7284–50ml, diluted 1:15 in PBS), the first antibody mAB rabbit anti-NUT 1:1000 (clone C52B1, Cell Signaling #3625) in blocking buffer was added, followed by incubation with the 2nd antibody goat anti-rabbit Alexa*488 1:1000 (Thermo Fisher, #A-11008) in blocking buffer in the dark. Cells were mounted with ProLong Gold Antifade Mountant with DAPI (Thermo Fisher, #P36931) and analysed using a Laser scanning microscope (LSM700).
[…] Upper row: antibody against NUT, lower row: DAPI.

[5] = tested on: human solid and haematological cancer lines as well as primary patient-derived AML samples; settings: cited from earlier work
HEXIM1 [6] = test: HEXIM1 modulation in mouse blood; assay type: in vivo; settings: mice; 2 mg/kg p.o.
Text: Cmax and PD modulation of Ty-82 tumors treated with BI 894999.

HEXIM1 [7] = test: Pharmacometrics (PK/PD) simulation; settings: Supplement Fig. 6
Procedure: Pharmacometrics simulation for platelet counts (top) and plasma concentration (bottom) as a function of four different dosing regimens of BI 894999. Solid line of 10nM indicated the estimated plasma concentration needed to stimulate a maximum 2-fold change from baseline for HEXIM1.

BRD4-NUT = tested on: T2, BRD4-NUT; test: Immunofluorescence staining of NUT megadomains, Ty-82; assay type: cell-based, human
T2 construct: endogenous in cells; host or cells: Ty-82 NUT carcinoma cells
Procedure: as §1, with “(LSM700). […]” for “(LSM700).”
Immunofluorescence staining of NUT megadomains on NC Ty-82 treated with BI with BI 894999 30nM for 1 h, then changed to 10 nM or 5 nM or 2.5 nM or control for 24 h.

10–15 BRD4-NUT = test: Cell proliferation assay (Alamar readout), 10–15; assay type: cell-based, human; settings: Homo sapiens, 96h, read-out: geomean GI50
Procedure: The NUT Carcinoma cell line Ty-82 was purchased from JCRB Japan No. 1330 and cultivated in RPMI 1640 supplemented with 10% fetal calf serum (FCS). The NC cell lines 10–15, 14169 and 10326 were in-licensed from Christopher French, Brigham & Womens Hospital, Boston, and were cultivated in DMEM supplemented with glutamax and 10% FCS.
Viability assays were performed on 96-well flat-bottom microtiter plates and incubated with Alamar Blue solution (Invitrogen, Carlsbad, US-CA). The effects of drug combinations were analysed using the Bliss Independence Model.
Dose response curves (96h cell proliferation assay - Alamar readout) on four NC cell lines with BET inhibitor BI 894999. Yellow bar: readout t zero (before adding of compound). Green bar: DMSO control (max proliferation).
Dose response curves (96h cell proliferation assay - Alamar readout) on four NC cell lines with multiple BET inhibitors.

CNc1nc(-c2nc3ccc(N4CCN(C)CC4)cc3n2Cc2ccccc2)cn2c(C)nnc12 [BI 894999]
tolerability as measured by platelet nadir counts ([1]; Schedule C compared to Schedule B at MTD, comparable 6-week cumulative dose (72 vs 70 mg)): better tolerability | thrombocytopenia events ([1]; Schedule C versus Schedule B at equivalent 6-week cumulative dose): less >Grade 3 thrombocytopenia events | MTD, loading dose ([1]; Schedule C, Day 1): 6 mg | MTD, maintenance dose ([1]; Schedule C, following 6 days): 3 mg | fold higher compound concentrations required to undergo cell death [2]: > 100 fold | speckled megadomain localisation (NUT staining) (BRD3-NUT [3]): complete loss | concentration at which BRD3-NUT detaches from chromatin (BRD3-NUT [4]): 3 to 10 nM | GI50 values ([5]; AML cell lines): single-digit nM range | fold more potent compared to other BET inhibitors (GSK525762, OTX015, JQ1) ([5]; cellular potency in large panels): at least 10 fold | HEXIM1 modulation in the blood (HEXIM1 [6]): ~ 2 fold | estimated plasma concentration needed to stimulate a maximum 2-fold change from baseline for HEXIM1 (HEXIM1 [7]): 10 nM | time to detachment of BRD-NUT from chromatin (BRD4-NUT; 10–30 nM in Ty-82, 3–10 nM in 10326): ≤ 30 min | concentration at which BRD4-NUT detaches from chromatin / is re-distributed (BRD4-NUT; Ty-82, 30 min treatment): 10 to 30 nM | speckled staining (BRD-NUT bound to chromatin) after washout (BRD4-NUT; washout experiments): quickly restored | GI50 (10–15 BRD4-NUT): 1.7 nM
